Data on five compounds can be found in ChEMBL document CHEMBL3045901, “Aryldiones incorporating a [1,4,5]oxadiazepane ring. Part 2: chemistry and biology of the cereal herbicide pinoxaden” (Pest Manag Sci, 2011).

The test system of series [1] is Alopecurus myosuroides. The series can be described thus: Herbicidal activity against Alopecurus myosuroides assessed as weed control at 30 g/ha under greenhouse measured after 21 days by post-emergence test. It counts as functional.
Series [2] relates to Hordeum vulgare. The experiment in a line: Herbicidal activity against Hordeum vulgare (barley) assessed as weed control at 30 g/ha under greenhouse measured after 21 days by post-emergence test. The format is functional.
The test system of series [3] is Avena fatua. The series can be described thus: Herbicidal activity against Avena fatua assessed as weed control at 30 g/ha under greenhouse measured after 21 days by post-emergence test. It counts as functional.
For series [4], the system named is Triticum aestivum. The experiment in a line: Herbicidal activity against Triticum aestivum (wheat) assessed as weed control at 30 g/ha under greenhouse measured after 21 days by post-emergence test. It counts as functional.
The test system of series [5] is Setaria faberi. The experiment in a line: Herbicidal activity against Setaria faberi (Giant Foxtail) assessed as weed control at 30 g/ha under greenhouse measured after 21 days by post-emergence test. It counts as functional.
Series [6] concerns Lolium perenne. The series can be described thus: Herbicidal activity against Lolium perenne (perennial ryegrass) assessed as weed control at 30 g/ha under greenhouse measured after 21 days by post-emergence test. The format is functional.
The nature of series [7]: Lipophilicity, log P of the compound at pH5 at 20 degC. The format is physicochemical. As to conditions: buffer, pH 5.
Series [8] can be described thus: Aqueous hydrolysis of the compound at pH 7 at 20 degC. It counts as physicochemical. To be noted: aqueous solution, read-out: DT50 (converted).
The nature of series [9]: Aqueous hydrolysis of the compound at pH 9 at 20 degC. The format is physicochemical. To be noted: aqueous solution, read-out: DT50 (converted).
The nature of series [10]: Aqueous hydrolysis of the compound at pH 5 at 20 degC. It counts as physicochemical. As to conditions: aqueous solution, read-out: DT50 (converted).
Series [11] in a line: Aqueous hydrolysis of the compound at pH 4 at 20 degC. As to conditions: aqueous solution, read-out: DT50 (converted). The format is physicochemical.
Series [12] can be described thus: Solubility in water at pH7 at 20 degC. The format is physicochemical. To be noted: pH 7.
A short description of series [13]: Lipophilicity, log P of the compound at pH7 at 20 degC. It counts as physicochemical. To be noted: buffer, pH 7.
The nature of series [14]: Dissociation constant, pKa of the compound. The format is physicochemical.
Series [15] in a line: Solubility in water at pH5 at 20 degC. It counts as physicochemical. As to conditions: pH 5.
Series [16] has as its system Avena fatua. The experiment in a line: Drug level in Avena fatua at 0.1 g/l measured after 6 hr. It counts as ADME, organism-based. As to conditions: in vivo.
In series [17] the test system is Hordeum vulgare. The series can be described thus: Drug level in winter Hordeum vulgare cv. Manitou (barley) at 0.1 g/l measured after 6 hr in presence of safener cloquintocet-mexyl. As to conditions: in vivo. It counts as ADME, organism-based.
The subject of series [18] is Triticum aestivum. The experiment in a line: Drug level in winter Triticum aestivum cv. Soisson (wheat) measured after 6 hr in presence of safener cloquintocet-mexyl. It counts as ADME, organism-based. To be noted: in vivo.
The test system of series [19] is Hordeum vulgare. The series can be described thus: Drug metabolism in winter Hordeum vulgare cv. Manitou (barley) assessed as total inactive metabolites at 0.1 g/l measured after 16 hr. The format is ADME, organism-based. As to conditions: in vivo.
A short description of series [20]: Solubility in water at 25 degC. It counts as physicochemical.
Series [21] has as its system Lolium perenne. The series can be described thus: Drug level in Lolium perenne (perennial ryegrass) measured at 0.1 g/l after 6 hr. The format is ADME, organism-based. To be noted: in vivo.
For series [22], the system named is Avena fatua. The experiment in a line: Drug level in Avena fatua at 0.1 g/l measured after 6 hr in presence of safener cloquintocet-mexyl. As to conditions: in vivo. It counts as ADME, organism-based.
The nature of series [23]: Lipophilicity, log P of the compound at 25 degC. It counts as physicochemical. As to conditions: octanol/water.
Series [24] concerns Hordeum vulgare. The experiment in a line: Drug level in winter Hordeum vulgare cv. Manitou (barley) at 0.1 g/l measured after 6 hr. To be noted: in vivo. The format is ADME, organism-based.
The subject of series [25] is Lolium perenne. The experiment in a line: Drug level in Lolium perenne (perennial ryegrass) measured at 0.1 g/l after 6 hr in presence of safener cloquintocet-mexyl. It counts as ADME, organism-based. As to conditions: in vivo.
Series [26] has as its system Triticum aestivum. The experiment in a line: Drug level in winter Triticum aestivum cv. Soisson (wheat) measured after 6 hr. It counts as ADME, organism-based. As to conditions: in vivo.

Values after ≈ are worked out from the molar mass of the structure shown.

Turning to `CCc1cc(C)cc(CC)c1C1C(=O)N2CCOCN2C1=O` (stereo not drawn), the Activity in series [1] came to 0%; in series [2] it was 0%; in series [3], 40%; in series [4] it was 0%; in series [5] it was 10%; in [6], 10%.
Turning to `CCc1cc(C)cc(CC)c1C1C(=O)N2COC(C)CN2C1=O` (stereo not drawn), the Activity is on record as 40% in series [1]; 20% in series [2]; 100% in series [3]; 10% in series [4]; 90% in series [5]; 60% in [6].
`CCc1cc(C)cc(CC)c1C1C(=O)N2COC(CC)CN2C1=O` (stereo not drawn): the Activity in series [1] is listed as 90%; in series [2] it was 20%; in [3] it was 100%; in series [4], 60%; in [5], 90%; in series [6] it was 100%.
For `CCc1cc(C)cc(CC)c1C1C(=O)N2CCOCCN2C1=O` [PINOXADEN DIONE], the Activity came out at 100% in series [1]; 0% in series [2]; 100% in series [3]; 10% in [4]; 90% in series [5]; 90% in series [6]. Further, the logD in series [7] is 0.62; in series [13] it was -1.1. In addition, the half-life in series [8], in series [9], in [10] and in [11] was under 24 h each time. The solubility in [12] was over 300000 µg/mL; in [15] it was 5200 µg/mL (≈ 16.4 mM). For the same compound, the pKa in [14] is 3.82.
For the compound `CCc1cc(C)cc(CC)c1-c1c(OC(=O)C(C)(C)C)n2n(c1=O)CCOCC2` [PINOXADEN], the Drug uptake in series [16] is 0%; in series [17], 1.5%; in series [18] it was 0%; in [21] it was 0%; in [22], 0%; in [24], 2.1%. In addition, the Drug uptake in series [25] and in series [26] was 0% each time. Also, the half-life in series [8] was 358 h; in series [9] it was 7.2 h; in series [10], 607 h; in series [11], 578 h. Besides, the Drug metabolism in [19] was determined as 49.6%. The same compound yielded a solubility in series [20] of 200 µg/mL (≈ 0.499 mM). Further, the logP in series [23] turned out to be 3.2.
